The values below come from ChEMBL document CHEMBL4152262, “Design, synthesis and evaluation of novel multi-target-directed ligands for treatment of Alzheimer's disease based on coumarin and lipoic acid scaffolds” (Eur J Med Chem, 2018).

In assay [1] the test system is SH-SY5Y. Briefly: Neuroprotection against H2O2-induced cell death in human SH-SY5Y cells assessed as cell viability at 100 uM preincubated for 3 hrs followed by H2O2 addition measured after 24 hrs by MTT assay relative to control. To be noted: read-out: Activity.
Assay [2] relates to SH-SY5Y. The experiment in a line: Inhibition of amyloid beta (1 to 42) (unknown origin)-induced cell death in human SH-SY5Y cells assessed as cell viability at 100 uM preincubated for 3 hrs followed by amyloid beta (1 to 42) addition measured after 24 hrs by MTT assay relative to control. To be noted: read-out: Activity. For orientation: Tetrazolium dyes change colour on reduction, which living cells bring about.

Consider `COc1cc2c(cc1OC)C(=O)C(CC1CCN(Cc3ccccc3)CC1)C2` (configuration not stated) [DONEPEZIL], for which the viability at 100 µM in the assay with SH-SY5Y [1] was determined as 33%; in the assay on SH-SY5Y [2], 39.9%.
